Experimental data reported in US20170369529A1, “CELL PENETRATING PEPTIDES” (Hoffmann-La Roche Inc., priority 2014, published 2017).
Positions of bridges follow the written chain, without caps; N, C: chain ends. Non-standard residues stand in square brackets, D forms with d. Nle = CCCC[C@H](N)C(=O)O; AEEA = NCCOCCOCC(=O)O; Fluo = fluorescein

Experiments:
Format in all cases: cell-based
[1] = system: Jurkat; assay: Cell penetration (cellular uptake by confocal microscopy) in Jurkat cells; conditions: t 2 h, 2 μM CPP, no fetal calf serum, 37° C., fluorescein fluorescence
Description: (§1) Methods and Procedures: Cells were plated onto μ-slide 8 well chambered coverslips (IBIDI) with ibidi standard-bottom and cultured overnight. Peptide stocks were prepared in MillQ and were diluted in cell growth media for cellular uptake studies. Cells were carefully washed with culture medium without fetal calf serum, incubated with 2 μM CPP concentration in absence of fetal calf serum and analyzed by confocal microscopy regarding uptake efficiency and localization over 2 h at 37° C. Finally, trypan blue (0.4% end concentration) was administered to quench cell surface fluorescence followed by an endpoint imaging step. Plates were imaged with an excitation at 488 nm and detection of fluorescence over 500-550 nm (fluorescein) using a TCS SP5 confocal microscope (Leica 174 Microsystems, Mannheim, Germany) equipped with an HCX PL APO 175 63×N.A. 1.2 water immersion lens and a temperature-controlled microscope stage.

[2] = system: HEK293T cells; assay: Cell penetration (cellular uptake by confocal microscopy) in HEK293T cells; conditions: 2 μM CPP; for cell penetration, HEK293T (t2 h): t 2 h, no fetal calf serum, 37° C., fluorescein fluorescence
Description: (§2) The peptides of the invention were tested for cell penetration in HeLa and HEK293T cell lines.
(§3) Materials: The HeLa (DSMZ) and HEK293T cells were maintained in growth media and then passaged every 2-3 days. Growth media for HeLa cells was RPMI 1640, 10% fetal calf serum, MEM-non-essential amino acids, sodium pyruvate and L-glutamine (GIBCO). Growth media for HEK293T DMEM was supplemented with 10% fetal calf serum, MEM-non-essential amino acids, sodium pyruvate and glutamine (all GIBCO).
as §1

[3] = system: HeLa cells; assay: Cell penetration (cellular uptake by confocal microscopy) in HeLa cells; conditions: 2 μM CPP; for penetration of HeLa cells (in words) / localization of fluorescence in HeLa cells: confocal microscopy; for penetration of HeLa cells (in words): intracellular signal; for cell penetration, HeLa(t2 h): t 2 h
Description: as §2, §3, §1

[4] = no fetal calf serum, 37° C., fluorescein fluorescence

Substance: Fluo-Met-Ile-Ile-Leu-Ile-Ile-Met-Gly-Val-Ala-Asp-Leu-Ile-Lys-Lys-Phe-Glu-Ser-Ile-Ser-Lys-Glu-Glu-NH2 [Example 6]
- cell penetration, Jurkat (t2 h) [1]: 0.44
- cell penetration, HEK293T (t2 h) [2]: 0.08
- penetration of HeLa cells (in words) [3]: low intracellular signals
- cell penetration, HeLa(t2 h) [3, 4]: 0.14

Substance: Fluo-(D-Met)-Ile-(D-Ile)-Leu-Ile-Ile-Gly-Ser-Thr-Ser-Arg-Asp-His-Nle-Val-Leu-His-Glu-Tyr-Val-Asn-Ala-Ala-Gly-Ile-Thr-Ado-NH2 (Fluo-[dM]I[dI]LIIGSTSRDH[Nle]VLHEYVNAAGIT-{AEEA-NH2}) [Example 5]
- cell penetration, Jurkat (t2 h) [1]: 0.18
- cell penetration, HEK293T (t2 h) [2]: 0.5
- penetration of HeLa cells (in words) [3]: low intracellular signals
- cell penetration, HeLa(t2 h) [3, 4]: 0.22

Substance: Fluo-cyclo(Lys-Ile-Ile-Ile-Ile-Asp)-Gly-Ser-Thr-Ser-Arg-Asp-His-Nle-Val-Leu-His-Glu-Tyr-Val-Asn-Ala-Ala-Gly-Ile-Thr-Ado-NH2 (Fluo-KIIIIDGSTSRDH[Nle]VLHEYVNAAGIT-{AEEA-NH2}; lactam 1-6) [Example 2]
- cell penetration, Jurkat (t2 h) [1]: 0.9
- cell penetration, HEK293T (t2 h) [2]: 0.23
- penetration of HeLa cells (in words) [3]: low intracellular signals
- cell penetration, HeLa(t2 h) [3, 4]: 0.18

Substance: Fluo-cyclo(Lys-Nle-Ile-Ile-Leu-Ile-Ile-Asp)-Gly-Ser-Thr-Ser-Arg-Asp-His-Nle-Val-Leu-His-Glu-Tyr-Val-Asn-Ala-Ala-Gly-Ile-Thr-Ado-NH2 (Fluo-K[Nle]IILIIDGSTSRDH[Nle]VLHEYVNAAGIT-{AEEA-NH2}; lactam 1-8) [Example 3]
- cell penetration, Jurkat (t2 h) [1]: 0.77
- cell penetration, HEK293T (t2 h) [2]: 0.35
- penetration of HeLa cells (in words) [3]: low intracellular signals
- cell penetration, HeLa(t2 h) [3, 4]: 0.28

Substance: Fluo-Nle-Ile-Ile-Leu-Ile-Ile-Gly-Ser-Thr-Ser-Arg-Asp-His-Nle-Val-Leu-His-Glu-Tyr-Val-Asn-Ala-Ala-Gly-Ile-Thr-Ado-NH2 (Fluo-[Nle]IILIIGSTSRDH[Nle]VLHEYVNAAGIT-{AEEA-NH2}) [Example 4]
- cell penetration, Jurkat (t2 h) [1]: 0.85
- cell penetration, HEK293T (t2 h) [2]: 0.16
- cell penetration, HeLa(t2 h) [3, 4]: 0.12

Substance: Fluo-Met-Ile-Ile-Leu-Ile-Ile-Gly-Ser-Thr-Ser-Arg-Asp-His-Met-Val-Leu-His-Glu-Tyr-Val-Asn-Ala-Ala-Gly-Ile-Thr-NH2 (fluorescein-MIILIIGSTSRDHMVLHEYVNAAGIT-NH2) [Example 1]
- localization of fluorescence in HeLa cells [3]: localized in endosomes and cytosol
- penetration of HeLa cells (in words) [3]: high
- cell penetration, HeLa (t30 min) ([3]; t 30 min, no fetal calf serum, 37° C., fluorescein fluorescence): 0.13
- cell penetration, HeLa(t2 h) [3, 4]: 0.11

Substance: Fluo-Phe-Ile-cyclo(Asp-Ile-Ile-Ile-Lys)-Ile-Leu-Leu-Ile-Gly-Ser-Thr-Ser-Arg-Asp-His-Nle-Val-Leu-His-Glu-Tyr-Val-Asn-Ala-Ala-Gly-Ile-Thr-Ado-NH2 (Fluo-FIDIIIKILLIGSTSRDH[Nle]VLHEYVNAAGIT-{AEEA-NH2}; lactam 3-7) [Example 7]
- cell penetration, Jurkat (t2 h) [1]: 1.35
- localization of fluorescence in HEK293T cells ([2]; confocal microscopy): pronounced cytosolic and partly endosomal fluorescence
- cell penetration, HEK293T (t2 h) [2]: 0.28
- localization of fluorescence in HeLa cells [3]: localized in endosomes
- penetration of HeLa cells (in words) [3]: high
- cell penetration, HeLa(t2 h) [3, 4]: 0.28
